{"source": "patent US20220125853A1", "about": "“MATERIALS AND METHODS FOR ENHANCING BONE CELL DIFFERENTIATION” (Mayo Foundation for Medical Education and Research, priority 2016, published 2022)", "key": {"[1]": {"test_system": "AMSCs", "assay": "RNA-seq analysis of AMSCs in response to CytoD", "type": "cell-based, human", "conditions": "24 hour", "source_text": "(§1) The effect of CytoD on adipose tissue-derived MSCs (AMSCs) was investigated. AMSCs offer several advantages over other sources of MSCs, particularly in the ease of tissue harvest, isolation and expansion to generate sufficient cell numbers for therapy. Because AMSCs have limited osteogenic potential, it is necessary to design molecular strategies to improve their ability to attain a mature osteoblastic phenotype. […] Furthermore, CytoD decreased protein levels of Enhancer of Zeste Homolog 2 (EZH2), an epigenetic suppressor of osteogenic differentiation that mediates heterochromatinization of bone-related genes by trimethylation of histone 3 lysine 27 (H3K27me3)."}, "[2]": {"test_system": "Enhancer of Zeste Homolog 2 (EZH2)", "assay": "EZH2 protein levels and H3K27me3 marks in AMSCs", "type": "cell-based, human", "source_text": "as §1"}, "[3]": {"test_system": "BMSCs", "assay": "RNA-seq analysis of BMSCs in response to CytoD", "type": "cell-based", "conditions": "24 hour"}, "[4]": {"test_system": "adipose tissue-derived MSCs (AMSCs)", "assay": "Osteogenic differentiation of AMSCs (alkaline phosphatase activity, mineralization, osteogenic polypeptide expression)", "type": "cell-based, human", "conditions": "throughout the cell culture time-course", "source_text": "as §1"}, "[5]": {"test_system": "skeletally mature mice", "assay": "Bone anabolic effect of EZH2 inactivation in skeletally mature mice", "type": "in vivo", "source_text": "(§2) Bone stimulatory therapeutics that promote bone formation include bone morphogenetic proteins (e.g., BMP2) and intermittent treatment with parathyroid hormone (PTH) or PTH related protein, as well as antibody-suppression of WNT inhibitors (e.g., SOST). Furthermore, inactivation of EZH2, an epigenetic regulator with histone 3 lysine 27 (H3K27) methyltransferase activity, using a pharmacological inhibitor (GSK126) is bone anabolic in skeletally mature mice and osteo-protective in estrogen-depleted (ovariectomized) mice. These biological effects are directly related to the ability of EZH2 inhibition to promote osteogenic differentiation and inhibit adipogenic differentiation of mesenchymal stem cells."}, "[6]": {"test_system": "estrogen-depleted (ovariectomized) mice", "assay": "Osteo-protective effect of EZH2 inactivation in estrogen-depleted (ovariectomized) mice", "type": "in vivo", "source_text": "as §2"}, "[7]": {"test_system": "MC3T3 cells", "assay": "mRNAseq gene expression in differentiating MC3T3 cells / preosteoblasts", "type": "cell-based", "protocol": "The molecular mechanisms by which EZH2 inhibition promotes osteogenic differentiation were assessed. […] This quiescent state is conducive for expression of bone-related extracellular matrix proteins (e.g., collagens) that support matrix mineralization. […] Several Wnt ligands (e.g., Wnt10b, Wnt10a, and Wnt6) are robustly expressed in differentiating MC3T3 cells."}}}
{"smiles": "C=C1[C@@H](C)[C@H]2[C@H](Cc3ccccc3)NC(=O)[C@]23[C@H](OC(C)=O)/C=C/[C@@](C)(O)C(=O)[C@@H](C)C/C=C/[C@H]3[C@@H]1O", "note": "[CytoD, cytochalasin D]", "values": [{"measurement": "program of other osteogenic markers, including those linked to the BMP2-RUNX2 axis (e.g., SP7)", "setting": "[1]", "value": "significant upregulation"}, {"measurement": "levels of H3K27me3 marks", "setting": "[2]", "value": "decreased levels"}, {"measurement": "protein levels of EZH2", "setting": "[2]", "value": "decreased"}, {"measurement": "program of other osteogenic markers, including those linked to the BMP2-RUNX2 axis (e.g., SP7)", "setting": "[3]", "value": "significant upregulation"}, {"measurement": "alkaline phosphatase activity", "setting": "[4]", "value": "significant increases"}, {"measurement": "expression of osteogenic polypeptides RUNX2, ALP, OPG and TGFβ3", "setting": "[4]", "value": "significant increases"}, {"measurement": "mineralization", "setting": "[4]", "value": "significant increases"}]}
{"smiles": "CC[C@H](C)n1cc(C)c2c(C(=O)NCc3c(C)cc(C)[nH]c3=O)cc(-c3ccc(N4CCNCC4)nc3)cc21", "note": "[GSK126]", "values": [{"measurement": "effect on bone", "setting": "[5]", "value": "bone anabolic"}, {"measurement": "effect on bone", "setting": "[6]", "value": "osteo-protective"}, {"measurement": "expression of pro-osteogenic Wnt10b", "setting": "[7]; differentiating MC3T3 cells, EZH2 inhibition", "value": "greatly up-regulated"}, {"measurement": "expression of the PTH receptor (Pthr1h)", "setting": "[7]; preosteoblasts", "value": "enhanced"}]}
